The numbers were not newly measured in patent US5643912A, “Pyrazinoic acid esters as anti-mycobacterium avium agents” (The Research Foundation of State University of NY, priority 1996, dated 1997), which cites them from elsewhere.

In this data set the test system is Mycobacterium (M.) tuberculosis. Conditions: cited from earlier work.

Regarding `NC(=O)c1cnccn1` [pyrazinamide], the resistance development result is “resistance develops quickly”.
